The target of assay [1] is T1, DNA (cytosine-5)-methyltransferase 1 (Homo sapiens, UniProt P26358). Put plainly: Binding affinity to human DNMT1 expressed in Escherichia coli assessed as response unit at 10 uM by SPR analysis.
In assay [2] the target is T1, DNA (cytosine-5)-methyltransferase 1. Put plainly: Binding affinity to human DNMT1 expressed in Escherichia coli assessed as equilibrium dissociation constant by SPR analysis.
The next assay deals with A2780. Put plainly: Antiproliferative activity against human A2780 cells incubated for 48 hrs by MTT assay. The format is functional, cell-based. The conditions noted are these: A2780, 48 h.
The next assay relates to HeLa. Nature of the assay: Antiproliferative activity against human HeLa cells incubated for 48 hrs by MTT assay. It counts as functional, cell-based. (Tetrazolium assays rely on reduction of a dye to a coloured formazan, in cell work by metabolically active cells.)
For assay [3], the system named is K562. Put plainly: Antiproliferative activity against human K562 cells incubated for 48 hrs by MTT assay. The format is functional, cell-based. The conditions noted are these: K562, 48 h.
For a further assay, the system named is SiHa. Put plainly: Antiproliferative activity against human SiHa cells incubated for 48 hrs by MTT assay. It counts as functional, cell-based.
A short description of assay [4]: Inhibition of recombinant human DNA methyltransferase using DNA as substrate incubated for 2 hrs by agarose gel assay.
The target of assay [5] is T1, DNA (cytosine-5)-methyltransferase 1. Put plainly: Binding affinity to human DNMT1 expressed in Escherichia coli by SPR analysis.
The target is the same in assay [6]. Put plainly: Inhibition of DNMT1 (unknown origin) at 500 uM relative to control.
Assay [7] shares this target. Nature of the assay: Inhibition of DNMT1 (unknown origin) at 250 uM relative to control.
Assay [8] has the same target. Nature of the assay: Inhibition of DNMT1 (unknown origin) using semi-methylated DNA substrate preincubated for 15 mins followed by substrate and [3H-SAM] addition and measured after 60 mins by microbeta scintillation counting assay.
Assay [9] relates to K562. Nature of the assay: Upregulation of TRAIL-R2/Dr5 expression in human K562 cells. The format is functional, cell-based.
Assay [10] has as its system K562. Nature of the assay: Upregulation of TNFR-1 expression in human K562 cells. It counts as functional, cell-based.
The test system of assay [11] is K562. Put plainly: Upregulation of CDKN1A/P21 expression in human K562 cells. The format is functional, cell-based.
The test system of assay [12] is K562. Nature of the assay: Induction of cell cycle arrest in human K562 cells assessed as G0-G1 phase cells at 20 uM incubated for 48 hrs by PI staining based flow cytometry assay (reference value: 33.58 to 35.82%). The format is functional.
In assay [13] the test system is K562. Nature of the assay: Induction of cell cycle arrest in human K562 cells assessed as S phase cells at 20 uM incubated for 48 hrs by PI staining based flow cytometry assay (reference value: 24.10 to 26.83%). The format is functional. (In general: Flow cytometry measures light scatter and fluorescence of single cells or particles in a stream.)
Assay [14] concerns K562. Nature of the assay: Induction of cell cycle arrest in human K562 cells assessed as G2/M phase cells at 20 uM incubated for 48 hrs by PI staining based flow cytometry assay (reference value: 37.35 to 45.32%). The format is functional.
In assay [15] the test system is K562. Nature of the assay: Induction of cell cycle arrest in human K562 cells assessed as G0-G1 phase cells at 40 uM incubated for 48 hrs by PI staining based flow cytometry assay (reference value: 33.58 to 35.82%). The format is functional.
The test system of assay [16] is K562. Put plainly: Induction of cell cycle arrest in human K562 cells assessed as S phase cells at 40 uM incubated for 48 hrs by PI staining based flow cytometry assay (reference value: 24.10 to 26.83%). The format is functional.
For assay [17], the system named is K562. Nature of the assay: Induction of cell cycle arrest in human K562 cells assessed as G2/M phase cells at 40 uM incubated for 48 hrs by PI staining based flow cytometry assay (reference value: 37.35 to 45.32%). It counts as functional.
For assay [18], the system named is K562. Put plainly: Induction of cell cycle arrest in human K562 cells assessed as G0-G1 phase cells at 60 uM incubated for 48 hrs by PI staining based flow cytometry assay (reference value: 33.58 to 35.82%). The format is functional.
The test system of assay [19] is K562. Nature of the assay: Induction of cell cycle arrest in human K562 cells assessed as S phase cells at 60 uM incubated for 48 hrs by PI staining based flow cytometry assay (reference value: 24.10 to 26.83%). It counts as functional.
For assay [20], the system named is K562. Nature of the assay: Induction of cell cycle arrest in human K562 cells assessed as G2/M phase cells at 60 uM incubated for 48 hrs by PI staining based flow cytometry assay (reference value: 37.35 to 45.32%). The format is functional.
Assay [21] concerns K562. Nature of the assay: Induction of apoptosis in human K562 cells assessed as viable cells at 20 uM incubated for 48 hrs by Annexin-V/PI staining based flow cytometry assay (reference value: 92.12%). It counts as functional. The following applies: read-out: Activity.
For assay [22], the system named is K562. Put plainly: Induction of apoptosis in human K562 cells assessed as early apoptotic cells at 20 uM incubated for 48 hrs by Annexin-V/PI staining based flow cytometry assay (reference value: 3.18%). The format is functional.
Assay [23] concerns K562. Nature of the assay: Induction of apoptosis in human K562 cells assessed as late apoptotic cells at 20 uM incubated for 48 hrs by Annexin-V/PI staining based flow cytometry assay (reference value: 3.73%). It counts as functional.
The subject of assay [24] is K562. Put plainly: Induction of apoptosis in human K562 cells assessed as necrotic cells at 20 uM incubated for 48 hrs by Annexin-V/PI staining based flow cytometry assay (reference value: 0.34%). The format is functional.
The test system of assay [25] is K562. Nature of the assay: Induction of apoptosis in human K562 cells assessed as viable cells at 40 uM incubated for 48 hrs by Annexin-V/PI staining based flow cytometry assay (reference value: 92.12%). The format is functional. The following applies: read-out: Activity.
The subject of assay [26] is K562. Put plainly: Induction of apoptosis in human K562 cells assessed as early apoptotic cells at 40 uM incubated for 48 hrs by Annexin-V/PI staining based flow cytometry assay (reference value: 3.18%). The format is functional.
In assay [27] the test system is K562. Nature of the assay: Induction of apoptosis in human K562 cells assessed as late apoptotic cells at 40 uM incubated for 48 hrs by Annexin-V/PI staining based flow cytometry assay (reference value: 3.73%). It counts as functional.
In assay [28] the test system is K562. Put plainly: Induction of apoptosis in human K562 cells assessed as necrotic cells at 40 uM incubated for 48 hrs by Annexin-V/PI staining based flow cytometry assay (reference value: 0.34%). It counts as functional.
Assay [29] relates to K562. Nature of the assay: Induction of apoptosis in human K562 cells assessed as viable cells at 60 uM incubated for 48 hrs by Annexin-V/PI staining based flow cytometry assay (reference value: 92.12%). It counts as functional. The conditions noted are these: read-out: Activity.
Assay [30] relates to K562. Put plainly: Induction of apoptosis in human K562 cells assessed as early apoptotic cells at 60 uM incubated for 48 hrs by Annexin-V/PI staining based flow cytometry assay (reference value: 3.18%). It counts as functional.
Assay [31] deals with K562. Put plainly: Induction of apoptosis in human K562 cells assessed as late apoptotic cells at 60 uM incubated for 48 hrs by Annexin-V/PI staining based flow cytometry assay (reference value: 3.73%). It counts as functional.
The subject of assay [32] is K562. Put plainly: Induction of apoptosis in human K562 cells assessed as necrotic cells at 60 uM incubated for 48 hrs by Annexin-V/PI staining based flow cytometry assay (reference value: 0.34%). It counts as functional.

Active and inactive are the calls of the source. The rule behind the calls is not given here.

T1 sequence (P26358 whole entry): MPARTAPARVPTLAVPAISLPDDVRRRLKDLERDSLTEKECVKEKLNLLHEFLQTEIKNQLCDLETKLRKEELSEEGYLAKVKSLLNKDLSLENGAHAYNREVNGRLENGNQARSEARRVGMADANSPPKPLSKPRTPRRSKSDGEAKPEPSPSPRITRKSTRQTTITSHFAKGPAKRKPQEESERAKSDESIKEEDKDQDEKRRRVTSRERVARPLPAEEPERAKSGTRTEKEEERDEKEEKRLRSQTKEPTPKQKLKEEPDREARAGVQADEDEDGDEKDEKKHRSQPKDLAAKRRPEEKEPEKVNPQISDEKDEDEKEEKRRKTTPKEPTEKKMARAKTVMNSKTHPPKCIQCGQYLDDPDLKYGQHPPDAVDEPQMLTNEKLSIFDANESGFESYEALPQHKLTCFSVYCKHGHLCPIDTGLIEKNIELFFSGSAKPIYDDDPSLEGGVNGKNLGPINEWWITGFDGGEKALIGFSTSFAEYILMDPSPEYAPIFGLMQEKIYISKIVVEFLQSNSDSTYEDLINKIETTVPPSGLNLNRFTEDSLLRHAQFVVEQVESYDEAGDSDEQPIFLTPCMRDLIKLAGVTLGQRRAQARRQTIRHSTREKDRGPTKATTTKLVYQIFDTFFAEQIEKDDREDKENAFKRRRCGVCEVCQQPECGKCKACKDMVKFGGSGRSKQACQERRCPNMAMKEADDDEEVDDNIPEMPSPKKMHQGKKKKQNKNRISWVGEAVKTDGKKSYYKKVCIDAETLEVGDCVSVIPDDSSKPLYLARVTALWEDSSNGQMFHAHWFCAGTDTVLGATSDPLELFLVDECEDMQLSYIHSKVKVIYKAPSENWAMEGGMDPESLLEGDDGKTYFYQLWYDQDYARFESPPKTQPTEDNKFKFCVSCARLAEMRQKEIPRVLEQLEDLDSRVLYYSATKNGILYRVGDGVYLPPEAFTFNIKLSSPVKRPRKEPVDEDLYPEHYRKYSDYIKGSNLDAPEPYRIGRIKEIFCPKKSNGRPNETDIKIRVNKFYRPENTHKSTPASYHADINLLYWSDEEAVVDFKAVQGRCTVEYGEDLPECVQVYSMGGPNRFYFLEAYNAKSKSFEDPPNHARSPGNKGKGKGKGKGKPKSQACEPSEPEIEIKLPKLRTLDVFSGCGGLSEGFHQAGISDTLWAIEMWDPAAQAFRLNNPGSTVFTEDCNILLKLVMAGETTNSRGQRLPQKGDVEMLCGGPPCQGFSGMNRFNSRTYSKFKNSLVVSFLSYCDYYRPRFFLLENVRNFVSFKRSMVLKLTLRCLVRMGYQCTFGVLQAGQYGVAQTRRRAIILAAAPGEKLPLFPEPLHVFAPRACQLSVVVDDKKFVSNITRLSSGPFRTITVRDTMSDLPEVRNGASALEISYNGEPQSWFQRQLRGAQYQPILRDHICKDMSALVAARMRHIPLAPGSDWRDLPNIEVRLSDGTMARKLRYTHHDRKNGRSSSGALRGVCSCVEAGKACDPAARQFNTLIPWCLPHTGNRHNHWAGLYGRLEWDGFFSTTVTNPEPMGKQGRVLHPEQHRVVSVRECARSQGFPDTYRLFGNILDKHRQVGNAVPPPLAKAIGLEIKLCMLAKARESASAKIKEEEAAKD

One may read the Kd as the free concentration of one partner at which half of the binding sites on the other are occupied at equilibrium, for simple one-to-one binding. The term IC50 denotes the concentration at which inhibition is half-maximal. As usually defined, the inhibition is the share of the control response that was lost under treatment. A low value points to little suppression. `O=C(O)[C@H](Cc1c[nH]c2ccccc12)N1C(=O)c2ccccc2C1=O`: the Activity in assay [1] turned out to be 2.2 RU. The Kd in [2] and in assay [5] was 94.6 µM in each case. For the same compound, the IC50 is > 200 µM in the assay with A2780; > 200 µM in the assay on HeLa; > 200 µM in the assay with K562 [3]; > 200 µM with SiHa; 115 nM in assay [4]. Further, the inhibition in assay [6] and in [7] was < 5% throughout.
For `O=C(O)[C@H](Cn1c2ccc(Cl)cc2c2cc(Cl)cc(Cl)c21)N1C(=O)c2ccccc2C1=O`, the equilibrium dissociation constant (Kd) in assay [2] was determined as 0.183 µM. In addition, the IC50 in assay [8] turned out to be 40 µM; with A2780 it was 78.9 µM; in the assay on HeLa, 96.8 µM; in the assay on K562 [3] it was 43.9 µM; in the assay with SiHa it was 58.6 µM. For the same compound, the outcome in the assay on K562 [9], with K562 [10] and with K562 [11] was Active. The Activity in the assay with K562 [12] is reported as 35.18%; in the assay on K562 [13], 24.1%; with K562 [14] it was 33%; in the assay with K562 [15], 50.95%; with K562 [16], 21.62%; in the assay with K562 [17], 27.43%. For the same compound, the Activity with K562 [18] is listed as 61.74%; with K562 [19], 17.4%; in the assay with K562 [20] it was 20.78%; in the assay with K562 [22], 3.9%; with K562 [23], 3.16%; with K562 [24] it was 0.04%. Also, the Activity was found to be 1.75% with K562 [26]; 4.25% with K562 [27]; 0.29% with K562 [28]; 4.28% with K562 [30]; 27.24% with K562 [31]; 1.74% with K562 [32]. For the same compound, the viability at 20 µM with K562 [21] turned out to be 92.9%. In addition, the viability at 40 µM in the assay with K562 [25] came out at 93.7%. Moreover, the viability at 60 µM with K562 [29] was 16.7%.

Source of the values: ChEMBL document CHEMBL5579818, “Identification of 3-(9H-carbazol-9-yl)-2-(1,3-dioxoisoindolin-2-yl)propanoic acids as promising DNMT1 inhibitors” (Eur J Med Chem, 2024).
